Laboratory results as given in US20240197733A1, “A GABA RECEPTOR MODULATOR FOR USE IN THE TREATMENT OF PAIN” (SANIONA A/S, priority 2021, published 2024).

Tests used:
[1] = tested on: electrocutaneous stimulation-induced facial pain rodent model; assay: ES-induced facial pain model, mechanical allodynia (Von Frey), prophylactic and acute treatment; assay type: in vivo, Sprague-Dawley rats
Description: Mechanical pain thresholds were assessed by measuring each rat's facial withdrawal threshold (g) in response to von Frey monofilaments (BioSeb). Starting monofilament: 3.84 (0.6 g), 50% facial withdrawal threshold was interpolated using the up-down method (Chaplan S R et al., 1994). Cutoff monofilament was 4.56 (4 g). Unless stated otherwise, the same materials, methods, and provisions of Example 1 were applied to Example 2. The required quantity of the compound is weighed and dissolved in 100% DMSO in a volume amounting to 5% of the total volume while placed on a stirrer. The weight of the compounds refers to the free base weights. Once the solution becomes clear/transparent, the remaining volume of the vehicle is added (30% HPBCD prepared in MQ water) to final concentrations of 0.03, 0.1, and 0.3 mg/ml for Compound 1. The solutions are kept on a stirrer before- and during administration of the compounds to the animals. The experimenter assessing the behavioral responses to drug administration is blinded to the drug treatment to the animals. Each treatment group is coded according the scheme below: • A. Vehicle (5% DMSO+30% HPBCD): 10 ml/kg • B. Compound 1: 0.3 mg/kg • C. Compound 1: 1 mg/kg • D. Compound 1: 3 mg/kg • F. Compound 1: 3 mg/kg—acute Second baseline measurement was carried out similarly to day 1, For each animal, the average of the two baseline nociceptive measurements was calculated within each pain modality (mechanical, heat- and cold pain), and used as baseline (“Baseline” point on figures). Then all rats in the above respective group (A-D) are given treated as mentioned. Group F received vehicle treatment. Treatment is continued once daily to each group same as Day 2 All rats were treated with respective treatment as per day 3-7. After 1 hr of treatment, each rat was subjected to 1 hr of electrocutaneous stimulation at depilated cheek (0.4 mA intensity, 10 ms duration, 1 s inter-pulse interval). Similar to day 1- and 2, all rats were acclimatized to test equipment followed by measurements of ES-induced facial mechanical- heat- and cold allodynia (“0” time point on figures). After measurement of hypersensitivity threshold, rats from group A-D received the vehicle and three doses of Compound 1 as mentioned above while group F received single acute dose of 3 mg/kg of Compound 1. Treatment effects on pain thresholds were evaluated 2- and 4 hours after administration by assessing mechanical- (Von Frey) and thermal (heat and cold) withdrawal threshold.

[2] = tested on: electrocutaneous stimulation-induced facial pain rodent model; assay: ES-induced facial pain model, acute treatment, overall conclusion (mechanical and thermal tests); assay type: in vivo, Sprague-Dawley rats; settings: 1, 3 and 10 mg/kg po
From the text: The electrocutaneous stimulation-induced facial pain rodent model is a reproducible orofacial pain model in which depilated cheek area of rats are repeatedly subjected to electrical stimulation. Repeated electrical stimulation at low intensities produces craniofacial pain that mimics the behavioral characteristics of TN such as development of mechanical and thermal allodynia at cheeks despite no visible edema, swelling or excessive injury and tissue damage. Male wild type, Sprague-Dawley rats (Charles River Laboratories) born in-house at […] Research Laboratory between May 24, 2020 to May 28, 2020. […] Compound 1, vehicle and Carbamazepine was administered perorally in doses of 1, 3, and 10 mg/kg (Compound 1) or 30 mg/kg (carbamazepine) and drug effects on pain thresholds were evaluated 2- and 4 hours after drug administration by assessment of mechanical- (von Frey) and thermal hypersensitivity (heat- and cold stimulation respectively). Decrease in ES-induced pain threshold was evaluated 22 hours following electrical stimulation of the depilated left cheek area (between the eye and ear ridge, this is a receptive field of trigeminal nerve) of each rat and was manifested as facial withdrawal following application of Von Frey filaments for mechanical allodynia and a heat lamp and acetone test for thermal hyperalgesia and allodynia respectively. […]

[3] = biological target: GABAA receptors containing the a3 subunit (Homo sapiens, UniProt P18507+P34903); settings: cited from earlier work
Chain of GABAA receptors containing the a3 subunit (P34903 29-492): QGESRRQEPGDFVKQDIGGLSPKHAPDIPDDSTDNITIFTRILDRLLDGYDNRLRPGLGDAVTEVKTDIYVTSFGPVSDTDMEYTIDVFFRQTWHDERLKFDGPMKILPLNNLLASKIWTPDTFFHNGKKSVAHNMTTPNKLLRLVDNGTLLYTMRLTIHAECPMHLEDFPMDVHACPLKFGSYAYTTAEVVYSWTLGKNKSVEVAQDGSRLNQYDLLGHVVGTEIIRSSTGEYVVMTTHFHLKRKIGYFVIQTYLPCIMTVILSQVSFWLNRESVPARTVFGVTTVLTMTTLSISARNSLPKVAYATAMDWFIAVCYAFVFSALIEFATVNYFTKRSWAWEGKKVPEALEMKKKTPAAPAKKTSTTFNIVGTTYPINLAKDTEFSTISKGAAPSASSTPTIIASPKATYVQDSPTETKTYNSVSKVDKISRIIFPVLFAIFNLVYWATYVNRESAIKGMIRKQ
Chain of GABAA receptors containing the a3 subunit (P47870 25-512 partner limits assumed): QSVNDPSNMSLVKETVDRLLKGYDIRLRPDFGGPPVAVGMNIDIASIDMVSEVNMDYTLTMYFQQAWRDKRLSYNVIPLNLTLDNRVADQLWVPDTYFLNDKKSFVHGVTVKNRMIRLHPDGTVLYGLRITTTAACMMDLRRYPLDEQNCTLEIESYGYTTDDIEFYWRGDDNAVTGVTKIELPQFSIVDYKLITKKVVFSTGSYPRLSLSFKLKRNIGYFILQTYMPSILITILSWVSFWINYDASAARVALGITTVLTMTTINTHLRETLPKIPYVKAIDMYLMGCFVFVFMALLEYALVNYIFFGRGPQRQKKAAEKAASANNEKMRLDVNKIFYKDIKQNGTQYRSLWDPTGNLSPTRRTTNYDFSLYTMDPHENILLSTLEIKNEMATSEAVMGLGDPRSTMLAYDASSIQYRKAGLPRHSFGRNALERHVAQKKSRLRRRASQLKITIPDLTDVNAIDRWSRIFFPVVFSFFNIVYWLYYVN
Chain of GABAA receptors containing the a3 subunit (P18507 40-475): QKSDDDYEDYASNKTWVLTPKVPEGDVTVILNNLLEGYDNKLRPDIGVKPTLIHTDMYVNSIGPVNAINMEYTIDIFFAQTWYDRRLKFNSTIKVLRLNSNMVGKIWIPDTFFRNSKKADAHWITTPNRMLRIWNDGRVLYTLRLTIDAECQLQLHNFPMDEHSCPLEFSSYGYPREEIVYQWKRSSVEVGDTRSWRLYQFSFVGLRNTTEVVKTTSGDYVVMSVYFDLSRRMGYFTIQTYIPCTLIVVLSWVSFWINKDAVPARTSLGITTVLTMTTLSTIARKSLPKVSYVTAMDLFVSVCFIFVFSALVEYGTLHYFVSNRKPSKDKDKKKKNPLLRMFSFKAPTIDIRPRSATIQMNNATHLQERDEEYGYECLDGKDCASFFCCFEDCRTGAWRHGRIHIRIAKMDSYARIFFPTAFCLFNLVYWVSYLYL

For COc1ncc(-c2cccc(-n3cnc4cc(C(C)(C)O)cnc43)c2)c(OC)n1 [Compound 1, 2-(3-(3-(2,4-dimethoxypyrimidin-5-yl)phenyl)-3H-imidazo[4,5-b]pyridin-6-yl)propan-2-ol], the “effect size on mechanical allodynia, acute treatment compared to prophylactic treated animals” value ([1]; acute 3 mg/kg po) was “smaller”, the “effect on established mechanical allodynia vs vehicle” value (shortened to “effect … vs vehicle”) ([1]; acute 3 mg/kg po on day 9, p<0.01 post 2 hrs, p<0.001 post 4 hrs) was “reversed the mechanical allodynia” and the “effect … vs vehicle” value ([1]; prophylactic 0.3 mg/kg po plus additional dose on day 9, p>0.05 post 2 hrs, p<0.01 post 4 hrs) was “reversed the mechanical allodynia dose dependently”. The “effect … vs vehicle” value ([1]; prophylactic 1 mg/kg po plus additional dose on day 9, p<0.01 post 2 hrs, p<0.0001 post 4 hrs) was “reversed the mechanical allodynia dose dependently”, the “development of mechanical allodynia vs vehicle” value ([1]; prophylactic 3 mg/kg po once daily for 7 days, day 9 at 0 time, p<0.001 vs vehicle) was “significantly reduced the development of allodynia” and the “effect … vs vehicle” value ([1]; prophylactic 3 mg/kg po plus additional dose on day 9, p<0.0001 post 2 hrs and post 4 hrs) was “reversed the mechanical allodynia dose dependently”. For the same compound, the “analgesic effects (overall)” value [2] was “significant analgesic effects in a dose dependent manner” and the “modulation of GABAA receptors containing the a3 subunit” value [3] was “positive allosteric modulator (PAM)”.
